Experimental data taken from ChEMBL document CHEMBL3112450, “Synthesis and in vitro antitumor evaluation of primary amine substituted quinazoline linked benzimidazole” (Bioorg Med Chem Lett, 2014).

Tests used:
Assay type in all cases: functional
[1] = test system: OVCAR-8; test: Cytotoxicity against human OVCAR8 cells after 48 hrs by SRB assay; details: OVCAR-8, 48 h
[2] = test system: HT-29; test: Cytotoxicity against human HT-29 cells assessed as cell growth at 10^-8 M after 48 hrs by SRB assay; details: HT-29, 48 h, read-out: Activity
[3] = test system: HCT-116; test: Cytotoxicity against human HCT116 cells assessed as cell growth at 10^-7 M after 48 hrs by SRB assay; details: HCT-116, 48 h, read-out: Activity
[4] = test system: KM12; test: Cytotoxicity against human KM12 cells assessed as cell growth at 10^-7 M after 48 hrs by SRB assay; details: KM12, 48 h, read-out: Activity
[5] = test system: LOX IMVI; test: Cytotoxicity against human LOXIMVI cells assessed as cell growth at 10^-4 M after 48 hrs by SRB assay; details: read-out: Activity
[6] = test system: OVCAR-8; test: Cytotoxicity against human OVCAR8 cells assessed as cell growth at 10^-7 M after 48 hrs by SRB assay; details: OVCAR-8, 48 h, read-out: Activity
[7] = test system: NCI-H23; test: Cytotoxicity against human NCI-H23 cells assessed as cell growth at 10^-6 M after 48 hrs by SRB assay; details: NCI-H23, 48 h, read-out: Activity
[8] = test system: RPMI-8226; test: Cytotoxicity against human RPMI8226 cells after 48 hrs by SRB assay; details: RPMI-8226, 48 h
[9] = test system: NCI-H322M; test: Cytotoxicity against human NCI-H322M cells after 48 hrs by SRB assay
[10] = test system: BT-549; test: Cytotoxicity against human BT549 cells assessed as cell growth at 10^-4 M after 48 hrs by SRB assay; details: BT-549, 48 h, read-out: Activity
[11] = test system: NCI-H322M; test: Cytotoxicity against human NCI-H322M cells assessed as cell growth at 10^-8 M after 48 hrs by SRB assay; details: read-out: Activity
[12] = test system: KM12; test: Cytotoxicity against human KM12 cells assessed as cell growth at 10^-4 M after 48 hrs by SRB assay; details: KM12, 48 h, read-out: Activity
[13] = test system: SN12C; test: Cytotoxicity against human SN12C cells after 48 hrs by SRB assay
[14] = test system: HCC 2998; test: Cytotoxicity against human HCC2998 cells assessed as cell growth at 10^-7 M after 48 hrs by SRB assay; details: HCC 2998, 48 h, read-out: Activity
[15] = test system: MDA-MB-435; test: Cytotoxicity against human MDA-MB-435 cells assessed as cell growth at 10^-8 M after 48 hrs by SRB assay; details: MDA-MB-435, 48 h, read-out: Activity
[16] = test system: MDA-MB-468; test: Cytotoxicity against human MDA-MB-468 cells after 48 hrs by SRB assay; details: MDA-MB-468, 48 h
[17] = test system: UACC-62; test: Cytotoxicity against human UACC62 cells assessed as cell growth at 10^-7 M after 48 hrs by SRB assay; details: UACC-62, 48 h, read-out: Activity
[18] = test system: DU-145; test: Cytotoxicity against human DU145 cells after 48 hrs by SRB assay; details: DU-145, 48 h
[19] = test system: MDA-MB-231; test: Cytotoxicity against human MDA-MB-231 cells assessed as cell growth at 10^-8 M after 48 hrs by SRB assay; details: MDA-MB-231, 48 h, read-out: Activity
[20] = test system: SR; test: Cytotoxicity against human SR cells assessed as cell growth at 10^-7 M after 48 hrs by SRB assay; details: read-out: Activity
[21] = test system: ACHN; test: Cytotoxicity against human ACHN cells assessed as cell growth at 10^-4 M after 48 hrs by SRB assay; details: read-out: Activity
[22] = test system: IGROV-1; test: Cytotoxicity against human IGROV1 cells after 48 hrs by SRB assay; details: IGROV-1, 48 h
[23] = test system: IGROV-1; test: Cytotoxicity against human IGROV1 cells assessed as cell growth at 10^-6 M after 48 hrs by SRB assay; details: IGROV-1, 48 h, read-out: Activity
[24] = test system: NCI-H226; test: Cytotoxicity against human NCI-H226 cells assessed as cell growth at 10^-6 M after 48 hrs by SRB assay; details: NCI-H226, 48 h, read-out: Activity
[25] = test system: SK-OV-3; test: Cytotoxicity against human SKOV3 cells after 48 hrs by SRB assay; details: SK-OV-3, 48 h
[26] = Cytotoxicity against human OVCAR4 cells after 48 hrs by SRB assay; details: OVCAR-4, 48 h
[27] = test system: K562; test: Cytotoxicity against human K562 cells assessed as cell growth at 10^-7 M after 48 hrs by SRB assay; details: K562, 48 h, read-out: Activity
[28] = test system: NCI-H226; test: Cytotoxicity against human NCI-H226 cells assessed as cell growth at 10^-8 M after 48 hrs by SRB assay; details: NCI-H226, 48 h, read-out: Activity
[29] = test system: PC-3; test: Cytotoxicity against human PC3 cells assessed as cell growth at 10^-7 M after 48 hrs by SRB assay; details: PC-3, 48 h, read-out: Activity
[30] = test system: PC-3; test: Cytotoxicity against human PC3 cells after 48 hrs by SRB assay; details: PC-3, 48 h
[31] = test system: COLO 205; test: Cytotoxicity against human COLO205 cells assessed as cell growth at 10^-7 M after 48 hrs by SRB assay; details: COLO 205, 48 h, read-out: Activity
[32] = test system: MCF7; test: Cytotoxicity against human MCF7 cells assessed as cell growth at 10^-7 M after 48 hrs by SRB assay; details: MCF7, 48 h, read-out: Activity
[33] = test system: CCRF-CEM; test: Cytotoxicity against human CCRF-CEM cells after 48 hrs by SRB assay
[34] = test system: NCI-H226; test: Cytotoxicity against human NCI-H226 cells after 48 hrs by SRB assay; details: NCI-H226, 48 h
[35] = test system: TK-10; test: Cytotoxicity against human TK10 cells assessed as cell growth at 10^-8 M after 48 hrs by SRB assay; details: TK-10, 48 h, read-out: Activity
[36] = test system: KM12; test: Cytotoxicity against human KM12 cells after 48 hrs by SRB assay; details: KM12, 48 h
[37] = test system: DU-145; test: Cytotoxicity against human DU145 cells assessed as cell growth at 10^-7 M after 48 hrs by SRB assay; details: DU-145, 48 h, read-out: Activity

`C=CCn1c(C)nc2ccc(Nc3nc(Nc4ccc5nc(C)n(CC=C)c5c4)c4ccccc4n3)cc21` gave a GI50 [1] of 1560 nM, a TGI [1] of 3250 nM and a growth at 0.01 µM [2] of 102%. For the same molecule, the growth at 0.1 µM [3] was 99%, the growth at 0.1 µM [4] was 92% and the growth at 100 µM [5] was 7%. It also gave a growth at 0.1 µM [6] of 102%, a growth at 1 µM [7] of 93% and a GI50 [8] of 1870 nM. The LC50 [8] was > 100000 nM, the GI50 [9] was 1710 nM and the LC50 [9] was 6150 nM. For the same molecule, the TGI [9] was 3240 nM, the growth at 100 µM [10] was -32% and the growth at 0.01 µM [11] was 89%. For the same molecule, the growth at 100 µM [12] was -31%, the GI50 [13] was 1620 nM and the LC50 [13] was 5450 nM. It also gave a TGI [13] of 2980 nM, a growth at 0.1 µM [14] of 101% and a growth at 0.01 µM [15] of 100%. For the same molecule, the GI50 [16] was 1220 nM, the TGI [16] was 2480 nM and the growth at 0.1 µM [17] was 94%. It also gave a GI50 [18] of 1850 nM, an LC50 (50% lethal concentration) [18] of 5790 nM and a TGI [18] of 3270 nM. It also gave a growth at 0.01 µM [19] of 92%, a growth at 0.1 µM [20] of 93% and a growth at 100 µM [21] of -69%. For the same molecule, the GI50 [22] was 1830 nM, the TGI [22] was 3400 nM and the growth at 1 µM [23] was 99%. It also gave a growth at 1 µM [24] of 94%, a GI50 [25] of 1720 nM and an LC50 (concentration killing 50% of cells) [25] of 5560 nM. For the same molecule, the TGI [25] was 3090 nM, the GI50 [26] was 1530 nM and the TGI [26] was 2870 nM. The growth at 0.1 µM [27] was 94%, the growth at 0.01 µM [28] was 90% and the growth at 0.1 µM [29] was 88%. For the same molecule, the GI50 [30] was 1370 nM, the TGI [30] was 2900 nM and the growth at 0.1 µM [31] was 101%. For the same molecule, the growth at 0.1 µM [32] was 91%, the GI50 [33] was 2090 nM and the LC50 [33] was > 100000 nM. For the same molecule, the GI50 [34] was 1750 nM, the TGI [34] was 3310 nM and the growth at 0.01 µM [35] was 100%. For the same molecule, the GI50 [36] was 1640 nM, the TGI [36] was 3080 nM and the growth at 0.1 µM [37] was 100%.
For `C=CCn1c(C)nc2cc(Nc3nc(Nc4ccc5nc(C)n(CC=C)c5c4)c4ccccc4n3)ccc21`, the GI50 [1] was 284 nM, the LC50 [1] was > 100000 nM and the growth at 0.01 µM [2] was 103%. For the same molecule, the growth at 0.1 µM [3] was 102%, the growth at 0.1 µM [4] was 98% and the growth at 100 µM [5] was -71%. It also gave a growth at 0.1 µM [6] of 101%, a growth at 1 µM [7] of 100% and a GI50 [8] of 1240 nM. The LC50 [8] was > 100000 nM, the TGI [8] was 3930 nM and the GI50 [9] was 717 nM. The LC50 [9] was 4470 nM, the TGI [9] was 2000 nM and the growth at 100 µM [10] was -46%. It also gave a growth at 0.01 µM [11] of 92%, a growth at 100 µM [12] of -77% and a GI50 [13] of 1280 nM. The TGI [13] was 2900 nM, the growth at 0.1 µM [14] was 100% and the growth at 0.01 µM [15] was 97%. The GI50 [16] was 216 nM, the LC50 (concentration killing 50% of cells) [16] was > 100000 nM and the TGI [16] was 578 nM. The growth at 0.1 µM [17] was 98%, the GI50 [18] was 402 nM and the LC50 (50% lethal concentration) [18] was 3760 nM. The TGI [18] was 1410 nM, the growth at 0.01 µM [19] was 111% and the growth at 0.1 µM [20] was 89%. The growth at 100 µM [21] was -38%, the GI50 [22] was 1540 nM and the TGI [22] was 3010 nM. The growth at 1 µM [23] was 82%, the growth at 1 µM [24] was 89% and the GI50 [25] was 1900 nM. The TGI [25] was 3770 nM, the GI50 [26] was 276 nM and the TGI [26] was 730 nM. It also gave a growth at 0.1 µM [27] of 99%, a growth at 0.01 µM [28] of 93% and a growth at 0.1 µM [29] of 96%. It also gave a GI50 [30] of 305 nM, a TGI [30] of 1020 nM and a growth at 0.1 µM [31] of 101%. The growth at 0.1 µM [32] was 103%, the GI50 [33] was 296 nM and the LC50 [33] was > 100000 nM. The TGI [33] was 769 nM, the GI50 [34] was 2030 nM and the LC50 [34] was > 100000 nM. For the same molecule, the TGI [34] was 5040 nM, the growth at 0.01 µM [35] was 96% and the GI50 [36] was 223 nM. The LC50 (concentration killing 50% of cells) [36] was 1460 nM, the TGI [36] was 513 nM and the growth at 0.1 µM [37] was 99%.
